Results published in US20250319088A1, “DAPRODUSTAT FOR REDUCING FATIGUE IN A SUBJECT WITH ANEMIA ASSOCIATED WITH CHRONIC KIDNEY DISEASE” (GlaxoSmithKline Intellectual Property (No.2) Limited, priority 2021, published 2025).

What was measured:
[1] = system: patients with type 2 diabetes mellitus, non-dialysis dependent chronic kidney disease and anemia; details: at 25 weeks, cited from earlier work
[2] = system: non-dialysis patient with anaemia associated with chronic kidney disease; assay: CKD-AQ Tired/Low Energy/Weak Domain score in 28 week placebo controlled clinical study; format: in vivo, human; details: on treatment population
Protocol: (§1) A 28 week randomized double blind placebo controlled clinical study in non-dialysis patient with anaemia associated with chronic kidney disease has been conducted. Participants were assessed for eligibility for inclusion in the study on the basis of the following (non-exhaustive) inclusion and exclusion criteria.
(§2) Enrolled participants were randomized 1:1 to receive either daprodustat or matching placebo tablets administered once daily.
(§3) The Short form SF-36 questionnaire was completed by participants on day 1 and on weeks 8, 12 and 28, and the CKD-AQ questionnaire was completed by participants on week −2 (i.e. during screening period) and on day 1 and weeks 8, 12 and 28.
(§4) • Mean change in the SF-36 Vitality Domain score (0-100) between baseline and week 28. This was a principal secondary endpoint and the study was appropriately powered for this endpoint. • Mean change from baseline by domain and overall symptoms score on the CKD-AQ (the study was not powered for this secondary endpoint, so only nominal significance can be assessed).
(§5) For the endpoints of mean change in haemoglobin and SF-36 Vitality Domain, an analysis of covariance model was used including covariates of baseline level, treatment, and region. The model provided point estimate and two-sided 95% CI for the treatment effect, together with a one-sided p-value. Significance was determined if the one-sided p-value was less than 0.025. The analysis population for the haemoglobin and SF-36 Vitality Domain endpoints was the intent-to-treat population. The analysis population for the Chronic Kidney Disease Anemia Questionnaire Tired/Low Energy/Weak Domain endpoint was the on treatment population and analysis was based on a mixed model repeated measures model fitted from baseline up to Week 28 with factors for treatment, time, region, baseline value, baseline value by time, and treatment by time interactions.
A simple linear transformation was used to recalibrate the items to a 0-100 scale as outlined in Tables 11 and 12. […]

[3] = system: non-dialysis patient with anaemia associated with chronic kidney disease; assay: Haemoglobin concentration change from baseline to evaluation period in 28 week placebo controlled clinical study; format: in vivo, human
Protocol: as §1, §2
(§6) The treatment doses for participants in both treatment arms were titrated based on haemoglobin concentration as assessed by HemoCue. Haemoglobin concentration by HemoCue is assessed on day 1, and at weeks 2, 4, 8, 12, 16, 20, 24 and 28. The available dose steps of daprodustat and placebo were 1 mg, 2 mg, 4 mg, 6, mg, 8 mg, 10 mg, 12 mg and 16 mg. Dose modifications for participants followed the dose adjustment algorithm to achieve and maintain haemoglobin concentration within the target range of 11.0 to 12.0 g/dL outlined in Table 2.
The primary objective of the trial was to compare the efficacy of daprodustat to placebo on mean change in haemoglobin concentration. The primary endpoint was the mean change in haemoglobin concentration between baseline (day 1) and the evaluation period (mean over week 24 to week 28 inclusive).
For the endpoints of mean change in haemoglobin and SF-36 Vitality Domain, an analysis of covariance model was used including covariates of baseline level, treatment, and region. The model provided point estimate and two-sided 95% CI for the treatment effect, together with a one-sided p-value. Significance was determined if the one-sided p-value was less than 0.025. The analysis population for the haemoglobin and SF-36 Vitality Domain endpoints was the intent-to-treat population. […]

[4] = system: non-dialysis patient with anaemia associated with chronic kidney disease; assay: SF-36 Vitality Domain score in 28 week randomized double blind placebo controlled clinical study; format: in vivo, human; details: for Adjusted mean SF-36 Vitality Change from Baseline at Week 28 (SE): 0-100 score; for adjusted mean treatment difference (CI) in SF-36 Vitality: dapro-placebo
Protocol: as §1, §2, §6, §3, §4, §5
For the endpoints of mean change in haemoglobin and SF-36 Vitality Domain by subgroup, a similar model to that described above was used, adding covariates for subgroup and subgroup by treatment interaction term. The analysis population for these endpoints was the intent-to-treat population.
For endpoints of difference in SF-36 Vitality domain response rate, a Cochran-Mantel-Haenszel chi-squared test was used adjusting for treatment, baseline level, and region, to make comparisons between the treatment groups. Significance was determined if the one-sided p-value was less than 0.025. The analysis population for these endpoints was the intent-to-treat population.

[5] = system: non-dialysis patient with anaemia associated with chronic kidney disease; assay: hsCRP levels by baseline hsCRP quartile in 28 week placebo controlled clinical study; format: in vivo, human
Protocol: as §1
In addition to analysis of the intention to treat population, several sub-group analyses were pre-specified including subgroups with baseline hsCRP quartiles of <0.9 mg/L, 0.9 to <2.6 mg/L, 2.60 to <6.60 mg/L and ≥6.60 mg/L.
The changes in hsCRP levels in each quartile are given below in Tables 5 to 8.

Compound: darbepoetin alfa
- mean change in SF-36 Vitality domain ([1]; versus 4.2±19 placebo, P=0.196): 5.3±20
- percentage of responders having a ≥5-point increase in SF-36 Vitality domain ([1]; versus 49% placebo, nominal P=0.027): 54%

Compound: O=C(O)CNC(=O)C1C(=O)N(C2CCCCC2)C(=O)N(C2CCCCC2)C1=O [Daprodustat, N-((1,3-dicyclohexylhexahydro-2,4,6-trioxopyrimidin-5-yl)carbonyl)glycine]
- Adjusted Mean Treatment Difference (dapro − placebo) on CKD-AQ Tired/Low Energy/Weak Domain ([2]; baseline to week 28): 5.91
- Adjusted mean change from baseline to week 28 on CKD-AQ Tired/Low Energy/Weak Domain (SE) [2]: 8.72 (1.086)
- Adjusted mean change from baseline to week 28 on CKD-AQ Tired/Low Energy/Weak Domain (SE) ([2]; listed as daprodustat): 8.72
- haemoglobin concentration compared to placebo over the treatment period ([3]; one sided superiority p-value <0.0001): significantly increased haemoglobin concentration
- adjusted mean treatment difference in haemoglobin concentration ([3]; subjects having baseline haemoglobin >11 g/dL): 0.76 g/dL
- adjusted mean treatment difference in haemoglobin concentration ([3]; subjects having baseline hsCRP ≥6.60 mg/L): 1.25 g/dL
- SF-36 vitality domain scores for daprodustat and placebo ([4]; at week 12): not distinguishable
- adjusted difference in response rate (dapro-placebo), ≥6.0 point SF-36 Vitality increase ([4]; baseline to week 28): 0.13 (0.04, 0.22)
- Baseline SF-36 Vitality Sub-score Mean (SD) ([4]; baseline, intention to treat population, includes imputed values): 50.74 (21.175)
- Adjusted Mean Treatment Difference (dapro − placebo) in SF-36 Vitality change from baseline at week 28 ([4]; intention to treat population): 5.36
- Adjusted mean SF-36 Vitality Change from Baseline at Week 28 (SE) ([4]; intention to treat population): 7.29 (1.121)
- Adjusted mean SF-36 Vitality Change from Baseline at Week 28 (SE) ([4]; intention to treat population, listed as daprodustat): 7.29
- participants with a ≥6.0 point difference from baseline to week 28 in the SF-36 Vitality Sub-score ([4]; responder rate, intention to treat population): 58%
- adjusted mean treatment difference (CI) in SF-36 Vitality ([4]; subgroup baseline hsCRP 0.9 to <2.6 mg/L): 1.09 (−4.86, 7.04)
- adjusted mean SF-36 Vitality Change ([4]; subgroup baseline hsCRP 0.9 to <2.6 mg/L, week 28): 4.98
- adjusted mean treatment difference (CI) in SF-36 Vitality ([4]; subgroup baseline hsCRP 2.60 to <6.60 mg/L): 4.38 (−1.77, 10.53)
- adjusted mean SF-36 Vitality Change ([4]; subgroup baseline hsCRP 2.60 to <6.60 mg/L, week 28): 7.92
- adjusted mean treatment difference (CI) in SF-36 Vitality ([4]; subgroup baseline hsCRP <0.9 mg/L): 10.0 (3.53, 16.47)
- adjusted mean SF-36 Vitality Change ([4]; subgroup baseline hsCRP <0.9 mg/L, week 28): 9.84
- adjusted mean treatment difference (CI) in SF-36 Vitality ([4]; subgroup baseline hsCRP ≥6.60 mg/L): 7.71 (1.62, 13.80)
- adjusted mean treatment difference (CI) in SF-36 Vitality ([4]; subgroup baseline hsCRP ≥6.60 mg/L, listed as daprodustat): 7.71
- adjusted mean SF-36 Vitality Change ([4]; subgroup baseline hsCRP ≥6.60 mg/L, week 28): 8.24
- adjusted mean treatment difference in SF-36 Vitality domain subscore ([4]; subjects having baseline haemoglobin <9 g/dL): 7.44
- adjusted mean treatment difference in SF-36 Vitality ([4]; subjects having baseline haemoglobin >11 g/dL, small number of subjects): −7.13
- adjusted mean treatment difference in SF-36 Vitality domain subscore ([4]; subjects having baseline haemoglobin ≥9 to <10 g/dL): 5.25
- adjusted mean treatment difference in SF-36 Vitality domain subscore ([4]; subjects having baseline haemoglobin ≥10 to ≤11 g/dL): 6.01
- Week 28 SF-36 Vitality Sub-score Mean (SD) ([4]; week 28, intention to treat population, includes imputed values): 58.40 (18.312)
- Geometric mean hsCRP ([5]; baseline hsCRP 0.9-<2.60 mg/L, Baseline): 1.46 mg/L
- Geometric mean hsCRP ([5]; baseline hsCRP 0.9-<2.60 mg/L, Day 1): 1.46 mg/L
- Geometric mean hsCRP ([5]; baseline hsCRP 0.9-<2.60 mg/L, End of Treatment): 2.55 mg/L
- Geometric mean hsCRP ([5]; baseline hsCRP 0.9-<2.60 mg/L, Week 28): 2.55 mg/L
- Geometric mean hsCRP ([5]; baseline hsCRP 2.60-<6.60 mg/L, Baseline): 3.93 mg/L
- Geometric mean hsCRP ([5]; baseline hsCRP 2.60-<6.60 mg/L, Day 1): 3.93 mg/L
- Geometric mean hsCRP ([5]; baseline hsCRP 2.60-<6.60 mg/L, End of Treatment): 3.83 mg/L
- Geometric mean hsCRP ([5]; baseline hsCRP 2.60-<6.60 mg/L, Week 28): 3.85 mg/L
- Geometric mean hsCRP ([5]; baseline hsCRP <0.9 mg/L, Baseline): 0.48 mg/L
- Geometric mean hsCRP ([5]; baseline hsCRP <0.9 mg/L, Day 1): 0.48 mg/L
- Geometric mean hsCRP ([5]; baseline hsCRP <0.9 mg/L, End of Treatment): 0.86 mg/L
- Geometric mean hsCRP ([5]; baseline hsCRP <0.9 mg/L, Week 28): 0.85 mg/L
- Geometric mean hsCRP ([5]; baseline hsCRP ≥6.60 mg/L, Baseline): 16.96 mg/L
- Geometric mean hsCRP ([5]; baseline hsCRP ≥6.60 mg/L, Day 1): 16.79 mg/L
- Geometric mean hsCRP ([5]; baseline hsCRP ≥6.60 mg/L, End of Treatment): 8.92 mg/L
- Geometric mean hsCRP ([5]; baseline hsCRP ≥6.60 mg/L, Week 28): 9.04 mg/L
- change in hsCRP levels ([5]; subjects with high baseline hsCRP (≥6.60 mg/L), similar reductions in placebo group): large reductions in hsCRP levels
